From PMC9663686, “Proline, hydroxyproline, and pyrrolidone carboxylic acid derivatives as highly efficient but reversible transdermal permeation enhancers” (Scientific Reports, 2022)
Marks after values point to notes of the source that are not given here.

Experiments:
[1] = system: HaCaT spontaneously immortalized human keratinocytes; assay: Neutral red (NR) uptake cell viability assay, HaCaT; format: cell-based; settings: 48-h incubation, mean ± SEM, read-out: IC50, HaCaT cells, NR assay
Description: (§1) Next, the in vitro toxicities of the most promising enhancers Pro3 and Pro4, along with the parent Pro2, on spontaneously immortalized human keratinocytes (HaCaT) and Swiss albino mouse embryonic fibroblasts (3T3) were studied (Fig. 3). […] The cellular toxicities were further probed using the 3-(4,5-dimethylthiazol-2-yl)-2,5-diphenyltetrazolium bromide (MTT) uptake assay, based on the transformation of yellow MTT into purple formazan by mitochondrial reductases of living cells. The MTT assay also yielded toxicity values in tens of µM with trends to higher toxicity with a longer acyl chain length (thus also higher lipophilicity) of enhancers (Fig. 3).
(§2) Cell viability was determined via 3-(4,5-dimethylthiazol-2-yl)-2,5-diphenyltetrazolium bromide (MTT) and neutral red (NR) uptake assays after 48-h incubation with the enhancers (see Supplementary data for details).
(§3) Both cell lines were cultivated in Dulbecco’s modified Eagle’s medium (DMEM, Lonza, Basel, Switzerland) supplemented with 10% heat-inactivated fetal bovine serum (Merck, Darmstadt, Germany), 10 mM HEPES buffer (Merck, Darmstadt, Germany), and 1% penicillin/streptomycin solution (Lonza, Basel, Switzerland) in 75-cm^2 tissue culture flasks (TPP, Trasadingen, Switzerland) at 37°C in a humidified atmosphere of 5% CO2. Subconfluent cells were sub-cultured every 3-4 days.
(§4) For toxicity studies, the stock-solutions of studied compounds were prepared in dimethyl sulfoxide (DMSO). These stock samples were diluted to the required concentration by the cell culture medium immediately before adding them onto the cells. The amount of DMSO applied to the cells was kept under its intrinsic measurable toxicity limit (below 1 vol.%). […]
(§5) Another approach used for the toxicity assessment was the neutral red (NR) uptake assay. […] The plates were shaken at rt for 30 min, and the optical density of the soluble NR was measured at λ = 540 nm using a Tecan Infinite 200 M plate reader.
(§6) The viability of each experimental group was expressed as the percentage of the untreated controls incubated under the same conditions (100%).

3T3 mouse fibroblasts [2] = assay: Neutral red (NR) uptake cell viability assay, 3T3; format: cell-based; settings: NIH3T3, 48-h incubation, read-out: IC50, 3T3 cells, NR assay
Description: as §1, §2, §3, §4, §5, §6

[3] = system: HaCaT spontaneously immortalized human keratinocytes; assay: MTT cell viability assay, HaCaT; format: cell-based; settings: 48-h incubation, mean ± SEM, read-out: IC50, HaCaT cells, MTT assay
Description: as §1, §2, §3
(§7) For toxicity studies, the stock-solutions of studied compounds were prepared in dimethyl sulfoxide (DMSO). […]
(§8) After 48-h incubation with the studied enhancer, cell viability was determined via 3-(4,5-dimethylthiazol-2-yl)-2,5-diphenyltetrazolium bromide (MTT) uptake assay based on the transformation of yellow MTT into purple formazan by mitochondrial reductase activity of living cells. […] Afterward, the cell viability was assessed by optical density measurement using a Tecan Infinite 200 M plate reader (Tecan, Grödig, Austria) at λ = 570 nm.
as §6

3T3 mouse fibroblasts [4] = assay: MTT cell viability assay, 3T3; format: cell-based; settings: NIH3T3, 48-h incubation, mean ± SEM, read-out: IC50, 3T3 cells, MTT assay
Description: as §1, §2, §3, §7, §8, §6

human skin [5] = assay: Transepidermal water loss (TEWL) of human skin in vitro, reversibility; settings: for TEWL 1 h after the sample had been removed / TEWL 4 h after the sample had been removed / TEWL 8 h after the sample had been removed / TEWL 12 h after the sample had been removed / TEWL 24 h after the sample had been removed: 24-h application of 1% enhancer (1% Azone, 5% SDS) in 60% PG; for TEWL 1 h after the sample had been removed / TEWL 4 h after the sample had been removed / TEWL 8 h after the sample had been removed / TEWL 12 h after the sample had been removed / TEWL 24 h after the sample had been removed / TEWL before sample application (baseline): mean ± SEM; for TEWL values after 24-h treatment (range over the three enhancers): 1% in 60% PG, baseline around 27 g/m^2/h; for time after enhancer removal for TEWL to decline to values similar to baseline: after 24-h application of 1% enhancer in 60% PG
Description: (§9) We further investigated the direct effects of the selected enhancers on the skin barrier assessed by TEWL and the electrical impedance of human skin in vitro. TEWL is a method commonly used in dermatology[38] to study, for example, the irritant potential of chemicals, skin barrier recovery, or effect of topical formulations, and permeation enhancers[17],[21],[41]–[44]. Electrical impedance measures the opposition of the skin to alternating electrical current and is inversely proportional to the flux of ions. Thus, increased TEWL or decreased impedance indicates a barrier impairment[45],[46]. Electrical impedance or conductance measurements have been used to screen new enhancers or assess the irritation potential of compounds[13],[15],[17],[21],[32],[44],[47]–[50]. Both TEWL and impedance can distinguish between reversible and irreversible effects of enhancers on skin permeability[17],[21],[40],[44],[51].
(§10) Human skin was mounted in Franz diffusion cells in the same way as for the permeation studies. After 1-h equilibration, basal TEWL and impedance values were recorded. Then, 1% enhancer in 60% PG, 60% PG as a negative control, 1% Azone in 60% PG, or 5% SDS in 60% PG as positive (irreversible) controls was applied on the skin (100 µl/cm^2) for 24 h. The residual sample was washed with PBS and gently blotted dry. At 1, 4, 8, 12, and 24 h after sample removal, TEWL, and impedance values were recorded. TEWL was measured using AquaFlux AF 200 (Biox Systems Ltd, London, UK), employing the condenser-chamber measurement method at 26 ± 1.0 °C and 43 ± 3% relative air humidity. Electrical impedance was measured by LCR meter 4080 (Conrad electronic, Hirschau, Germany, measuring range 20 Ω–10 MΩ, error at kΩ values < 0.5%) operated in parallel mode with an alternating frequency of 120 Hz, which was also used in our previous work[21],[44].
(§11) Samples were removed from the skin after 24 h, and TEWL and impedance values were recorded in predetermined time intervals (1, 4, 8, 12, and 24 h after sample removal). Data are presented as the means ± SEM; n ≥ 3. * statistically significant difference compared to the baseline value before the sample application at p < 0.05. ^+ statistically significant compared to the value 1 h after the sample removal at p < 0.05.^ ≠ statistically significant compared to the control (60% PG without enhancer) at the same time point, at p < 0.05.

human skin [6] = assay: Electrical impedance of human skin in vitro, reversibility; settings: for impedance 1 h after the sample had been removed / impedance 4 h after the sample had been removed / impedance 8 h after the sample had been removed / impedance 12 h after the sample had been removed / impedance 24 h after the sample had been removed: 24-h application of 1% enhancer (1% Azone, 5% SDS) in 60% PG; for impedance 1 h after the sample had been removed / impedance 4 h after the sample had been removed / impedance 8 h after the sample had been removed / impedance 12 h after the sample had been removed / impedance 24 h after the sample had been removed / impedance before sample application (baseline): mean ± SEM; for fold decrease of skin impedance compared to baseline (range over enhancers and control): 24 h treatment, baseline 25–29 kΩ × cm^2; for recovery of skin impedance after sample removal: after 24-h application, followed 24 h after removal
Description: as §9, §10, §11

Row | Compound | IC50 [1] [µM] | IC50 (3T3 mouse fibroblasts [2]) [µM] | IC50 [3] [µM] | IC50 (3T3 mouse fibroblasts [4]) [µM] | TEWL 1 h after the sample had been removed (human skin [5]) | TEWL 4 h after the sample had been removed (human skin [5]) | TEWL 8 h after the sample had been removed (human skin [5]) | TEWL 12 h after the sample had been removed (human skin [5]) | TEWL 24 h after the sample had been removed (human skin [5]) | TEWL values after 24-h treatment (range over the three enhancers) (human skin [5]) | TEWL before sample application (baseline) (human skin [5]) [g/m^2/h] | impedance 1 h after the sample had been removed (human skin [6]) | impedance 4 h after the sample had been removed (human skin [6]) | impedance 8 h after the sample had been removed (human skin [6]) | impedance 12 h after the sample had been removed (human skin [6]) | impedance 24 h after the sample had been removed (human skin [6]) | fold decrease of skin impedance compared to baseline (range over enhancers and control) (human skin [6]) | recovery of skin impedance after sample removal (human skin [6]) | impedance before sample application (baseline) (human skin [6]) [kΩ×cm^2] | time after enhancer removal for TEWL to decline to values similar to baseline (human skin [5]) [h] | other results
1 | CCCCCCCCCCCCOC(=O)C1CCCN1C(C)=O (stereo not drawn) [Pro2, N-acetyl proline dodecyl ester] | 98.1 ± 4.49 | 84.09 ± 0.49 | 53.2 ± 3.19 | 92.4 ± 2.82 | 65.4 ± 1.5*^≠ g/m^2/h | 56.0 ± 1.3*^≠ g/m^2/h | 45.9 ± 1.5*^≠+ g/m^2/h | 42.5 ± 2.5*^≠+ g/m^2/h | 41.8 ± 1.0*^≠+ g/m^2/h | 50–65 g/m^2/h | 25.0 ± 3.0 | 2.8 ± 0.1* kΩ×cm^2 | 6.0 ± 1.1*^≠ kΩ×cm^2 | 8.1 ± 1.7*^≠ kΩ×cm^2 | 8.6 ± 2.0*^≠ kΩ×cm^2 | 9.4 ± 2.6*^≠+ kΩ×cm^2 | 5–21 times | recovered incompletely | 25.2 ± 2.1 | – | reversibility of TEWL increase (human skin [5]; after 24-h application, followed 24 h after removal): only partly reversible within 24 h
2 | CCCCCCCCCCCCOC(=O)C1CCCN1C(=O)CC (stereo not drawn) [Pro3] | 74.4 ± 1.75 | 57.2 ± 2.58 | 32.7 ± 2.48 | 84.4 ± 1.5 | 59.4 ± 5.6*^≠ g/m^2/h | 47.1 ± 1.7*^≠+ g/m^2/h | 36.5 ± 1.1^+ g/m^2/h | 30.2 ± 2.2^+ g/m^2/h | 27.4 ± 2.2^+ g/m^2/h | 50–65 g/m^2/h | 27.5 ± 6.3 | 1.4 ± 0.8* kΩ×cm^2 | 7.9 ± 0.4*^≠+ kΩ×cm^2 | 13.1 ± 0.7*^≠+ kΩ×cm^2 | 15.8 ± 1.0*^≠+ kΩ×cm^2 | 18.6 ± 0.9*^≠+ kΩ×cm^2 | 5–21 times | recovered incompletely | 28.9 ± 1.7 | ≤ 8 | –
3 | CCCCCCCCCCCCOC(=O)C1CCCN1C(=O)CCC (stereo not drawn) [Pro4] | 54.6 ± 1.11 | 56.8 ± 2.45 | 33.2 ± 2.02 | 63.9 ± 1.91 | 49.9 ± 5.2*^≠ g/m^2/h | 39.4 ± 2.5*^+ g/m^2/h | 30.5 ± 1.3^+ g/m^2/h | 26.3 ± 1.8^+ g/m^2/h | 25.0 ± 2.8^+ g/m^2/h | 50–65 g/m^2/h | 27.3 ± 4.1 | 3.8 ± 0.8* kΩ×cm^2 | 11.5 ± 1.7*^+ kΩ×cm^2 | 18.3 ± 2.5*^+ kΩ×cm^2 | 21.2 ± 2.5*^+ kΩ×cm^2 | 23.8 ± 2.9^+ kΩ×cm^2 | 5–21 times | recovered to values similar to baseline within 24 h | 28.9 ± 2.6 | ≤ 8 | –
